Assay [1] in a line: kinact was determined.
Assay [2] is described as follows: Inhibitory concentration against KDO 8-P synthase.
Assay [3] is described as follows: Binding affinity constant against KDO 8-P synthase.
Assay [4] in a line: Inhibitory concentration against Chorismate mutase. More on the design: species or system Bacillus subtilis.

Seven molecules from ChEMBL document CHEMBL1133822, “Studies on 3-deoxy-D-manno-octulosonic acid 8-phosphate synthase using chorismate mutase inhibitors” (Bioorg Med Chem Lett, 2001) can be followed below.

In assay [1], `CCCC/N=C(\S)C(O)C(O)C(O)C(O)CO` (stereo not given) registered a K inact of 0.01. In assay [2], this molecule displayed an IC50 of 400 µM. The Ki in assay [3] was determined as 2300 µM.
As to `O=C(O)CC1(O)CCCCC1`, the figures for the IC50 in assay [4] and in assay [2] were 350 µM and more than 1000 µM, respectively.
`O=C(O)C1C2C=CC(C3CC23)C1C(=O)O` (stereo not given) gave an IC50 in assay [2] of more than 1000 µM.
Same read-out and setting: then `O=C(O)C1C2C=CC(CCC2)C1C(=O)O` (stereo not given), with more than 1000 µM.
In the case of `O=C(O)C12CCC(C(=O)O)(CC1=O)C(=O)C2`, in assay [2], the IC50 is more than 1000 µM.
`CC1(C(=O)[O-])CCC(C(=O)[O-])C1(C)C.[Na+].[Na+]` (stereo not given) registered a 50% inhibitory concentration (IC50) in assay [2] of more than 1000 µM.
On the same count and under the same terms, the same measure for `O=C(O)C1=C(C(=O)O)C2C=CC1[C@@H]1C(C(=O)O)[C@H]21` (stereo not given in full): more than 500 µM.

The term IC50 denotes the concentration at which inhibition is half-maximal. The low end stands for inhibition by little substance, the high end for a need for much substance. The term Ki denotes a dissociation constant, usually derived from enzyme kinetics or from competition with a known ligand. Lower therefore signals a stronger hold on the target.
